Entries after “also recorded” stand apart in the source; their conditions may differ.
How the values were obtained:
Format in all cases: cell-based
[1] = tested on: human bone marrow mesenchymal stem cells (BM-MSC); experiment: VEGF secretion by MSC, ELISA of conditioned media
Protocol: A single vial of human bone marrow-derived MSC was expanded and seeded into twenty (20) wells of 6-well plates using standard growth medium. At 95-99% confluency, cells were thoroughly washed with phosphate-buffered saline (PBS). Cells were then exposed to media containing 0, 0.1, 1.0, 10, or 100 μg/mL of treprostinil (n=4 wells for each concentration). After 24 hours of culture, the conditioned media was collected from each replicate and analyzed for Vascular Endothelial Growth Factor (VEGF) protein by enzyme-linked immunosorbent assay (ELISA). The goal of this experiment was to determine the optimal concentration of treprostinil needed to elicit a cellular response in MSC (using VEGF as a read out). A follow-up experiment to Example 1 was conducted to determine if treprostinil concentrations above 100 μg/mL affected MSC secretion of VEGF. As before, a single vial (same lot/batch) of bone marrow-derived MSC was expanded to thirty (30) wells of 6-well plates using standard growth medium. At 95-99% confluency, cells were thoroughly washed with PBS. Cells were then exposed to media containing 0, 100, 200, 300, or 400 μg/mL of treprostinil (n=6 wells for each concentration). Conditioned media was assayed for VEGF by ELISA after 24 hours of treprostinil exposure (n=4 replicates). Cells from those replicates were lysed, and RNA was extracted to determine VEGF-A gene expression by qRT-PCR. Cells from the remaining two (2) replicates were trypsinized, and assayed for cell viability by trypan blue exclusion. Cell culture supernatant was assayed for VEGF protein by ELISA (FIG. 3A, n=4). Cell lysates from those cultures were assayed for VEGF-A gene expression by qRT-PCR, and normalized to the control value (FIG. 3B, n=4). In both figures, error bars represent the standard deviation in each test group.

[2] = tested on: human bone marrow MSC; experiment: Bead-based immunoassay (Luminex) of cytokines in MSC culture supernatant; conditions: 250 μg/mL, 24 h
Protocol: Human bone marrow MSC were expanded and seeded into six (6) T225 flasks using standard growth medium (Table 1). At 95-99% confluency, cells were thoroughly washed with PBS. Three (3) flasks were replenished with basal media containing 250 μg/mL treprostinil, (+)Tre, and the remaining three (3) flasks were replenished with unsupplemented basal media, (−)Tre. After 24 hours of culture, representative images were captured from (+) Tre and (−) Tre cultures. Conditioned media was collected from each replicate, divided into two samples of appropriate volumes, and analyzed separately for: 1) secreted proteins (Myriad RBM InflammationMAP® 1.0) and 2) exosome RNA content. Cells were lysed directly from culture flasks, processed for total RNA isolation, and analyzed for gene expression by microarray (Illumina Human HT12 Expression BeadChip). Bead-based immunoassays (Luminex) was performed to assess the concentration of 46 cytokines in cell culture supernatants (Myriad RBM Human InflammationMAP® 1.0). Of the 46 evaluated, 6 were differentially secreted in treprostinil-treated and -untreated MSC cultures (see Table 6, n=3 per group). Asterisks indicate statistical significance between the groups based on a Student's T Test (*p<0.001, or **p<0.0001).

[3] = tested on: human bone marrow MSC; experiment: RNA content of MSC-derived exosomes by qRT-PCR; conditions: 250 μg/mL
Protocol: After 24 hours of culture, representative images were captured from (+) Tre and (−) Tre cultures. Conditioned media was collected from each replicate, divided into two samples of appropriate volumes, and analyzed separately for: 1) secreted proteins (Myriad RBM InflammationMAP® 1.0) and 2) exosome RNA content. Cells were lysed directly from culture flasks, processed for total RNA isolation, and analyzed for gene expression by microarray (Illumina Human HT12 Expression BeadChip). To characterize the effect of treprostinil on MSC, cells were analyzed by qRT-PCR and microarray to identify changes in gene expression (4). Cell culture supernatant media was assayed for selected inflammatory cytokines by bead-based immunoassays (2). Secreted vesicles were isolated from cell culture supernatant, and assayed for RNA content by qRT-PCR (7). Vesicles were also assayed for size and concentration by tunable resistive pulse sensing, or TRPS (7) (refer to Example 4). Total RNA was extracted from exosomal preparations, and qRT-PCR was performed with the same primer/probe sets used in experiments with the parent cells (refer to FIG. 8). VEGF-A gene transcripts present in MSC-derived exosomes were increased ˜4-fold as a result of treprostinil exposure (FIG. 10).

[4] = 24 h (FIG. 8, lower panel), p<0.05

CCCCC[C@H](O)CC[C@@H]1[C@H]2Cc3cccc(OCC(=O)O)c3C[C@H]2C[C@H]1O [treprostinil]
VEGF secretion, fold increase vs untreated controls ([1]; 100 μg/mL, 24 h (Example 2)): ~2 fold
VEGF secretion, fold of control values ([1]; 200 μg/mL, 24 h (Example 2)): 3 fold
VEGF secretion (ELISA) ([1]; 0.1, 1.0, 10, 100 μg/mL, 24 h, vs 0 μg/mL (Example 1, FIG. 2)): no statistically significant differences; also recorded: slight trend of increased VEGF secretion
VEGF secretion at higher concentrations ([1]; above 200 μg/mL (300, 400 μg/mL), 24 h): did not increase above this value
IL-6 production, fold more compared to control MSC [2]: ~50 fold
MCP-1 secretion, fold less than control MSC [2]: 6-7 fold
Interleukin-8 (IL-8) secretion ([2]; DECREASED vs (−) Treprostinil 2.4 +/− 1.0 pg/ml): Below detection
Tissue Inhibitor of Metalloproteinases 1 (TIMP-1) secretion ([2]; DECREASED vs (−) Treprostinil 29 +/− 3 ng/ml, p<0.001): 12 ± 1 ng/mL
Monocyte Chemotactic Protein 1 (MCP-1) secretion ([2]; DECREASED vs (−) Treprostinil 379 +/− 35 pg/ml, p<0.0001): 47 ± 9 pg/mL
Ferritin (FRTN) secretion ([2]; INCREASED vs (−) Treprostinil 0.70 +/− 0.11 ng/mL): 0.96 ± 0.01 ng/mL
Interleukin-6 (IL-6) secretion ([2]; INCREASED vs (−) Treprostinil 62 +/− 6 pg/ml, p<0.0001): 3580 ± 384 pg/mL
Vascular Endothelial Growth Factor (VEGF) secretion ([2]; INCREASED vs (−) Treprostinil 235 +/− 16 pg/ml, p<0.0001): 612 ± 37 pg/mL
let-7b abundance vs controls [3, 4]: less prevalent
miR-21 abundance vs controls [3, 4]: more abundant
VEGF-A gene transcripts in MSC-derived exosomes, fold increase ([3]; 24 h (FIG. 10)): ~4 fold
miR-21 in MSC-derived exosomes ([3]; 24 h (FIG. 10), p<0.05): significantly more abundant
miR-199-3p in MSC-derived exosomes ([3]; 24 h (FIG. 10), p<0.05): significantly more abundant

From patent publication US12274684B2, “Treatment of vasculopathy with prostacyclin and mesenchymal stem cells” (United Therapeutics Corporation, priority 2013, dated 2025)
